According to patent publication US8431565B2 (priority 2007, dated 2013):

Target: human CB1 receptor (hCB1) (Homo sapiens, UniProt P21554)
Type: cell-based

human CB1 receptor (hCB1), sequence (P21554 whole entry): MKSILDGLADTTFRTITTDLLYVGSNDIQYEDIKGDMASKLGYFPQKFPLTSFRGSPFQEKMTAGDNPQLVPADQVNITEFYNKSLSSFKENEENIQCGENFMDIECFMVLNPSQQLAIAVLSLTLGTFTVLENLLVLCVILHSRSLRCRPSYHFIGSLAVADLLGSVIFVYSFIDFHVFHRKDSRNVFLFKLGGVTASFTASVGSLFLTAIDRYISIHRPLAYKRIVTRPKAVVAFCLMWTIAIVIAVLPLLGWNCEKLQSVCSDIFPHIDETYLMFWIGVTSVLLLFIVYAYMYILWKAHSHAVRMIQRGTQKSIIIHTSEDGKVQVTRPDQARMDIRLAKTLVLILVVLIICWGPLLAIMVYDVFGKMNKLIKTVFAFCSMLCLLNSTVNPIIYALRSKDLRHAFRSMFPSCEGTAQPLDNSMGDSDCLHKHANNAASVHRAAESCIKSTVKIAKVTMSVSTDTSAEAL

Row | Structure (SMILES) | EC50 [µM]
1 | CNC(=O)[C@@H](NC(=O)c1nc(-c2cccnc2Cl)n2c1CN(C)CCC2)C(C)(C)C [Compound 628, (S)-3-(2-chloropyridin-3-yl)-N-(3,3-dimethyl-1-(methylamino)-1-oxobutan-2-yl)-8-methyl-6,7,8,9-tetrahydro-5H-imidazo[1,5-a][1,4]diazepine-1-carboxamide] | > 10
2 | CNC(=O)[C@@H](NC(=O)c1nc(-c2ccc(C(F)(F)F)cc2C)n2c1CN(C)CCC2)C(C)(C)C [Compound 632, (S)-N-(3,3-dimethyl-1-(methylamino)-1-oxobutan-2-yl)-8-methyl-3-(2-methyl-4-(trifluoromethyl)phenyl)-6,7,8,9-tetrahydro-5H-imidazo[1,5-a][1,4]diazepine-1-carboxamide] | > 10
3 | CNC(=O)[C@@H](NC(=O)c1nc(-c2ccnc(C)c2)n2c1CN(C)CCC2)C(C)(C)C [Compound 638, (S)-N-(3,3-dimethyl-1-(methylamino)-1-oxobutan-2-yl)-8-methyl-3-(2-methylpyridin-4-yl)-6,7,8,9-tetrahydro-5H-imidazo[1,5-a][1,4]diazepine-1-carboxamide] | > 10
4 | CNC(=O)[C@@H](NC(=O)c1nc(-c2cccnc2C)n2c1CN(C)CCC2)C(C)(C)C [Compound 640, (S)-N-(3,3-dimethyl-1-(methylamino)-1-oxobutan-2-yl)-8-methyl-3-(2-methylpyridin-3-yl)-6,7,8,9-tetrahydro-5H-imidazo[1,5-a][1,4]diazepine-1-carboxamide] | > 10
5 | CNC(=O)[C@@H](NC(=O)c1nc(-c2cccnc2OC(C)C)n2c1CN(C)CCC2)C(C)(C)C [Compound 641, (S)-N-(3,3-dimethyl-1-(methylamino)-1-oxobutan-2-yl)-3-(2-isopropoxypyridin-3-yl)-8-methyl-6,7,8,9-tetrahydro-5H-imidazo[1,5-a][1,4]diazepine-1-carboxamide] | > 10
6 | CNC(=O)[C@@H](NC(=O)c1nc(-c2ccc(=O)[nH]c2)n2c1CN(C)CCC2)C(C)(C)C [Compound 645, (S)-N-(3,3-dimethyl-1-(methylamino)-1-oxobutan-2-yl)-8-methyl-3-(6-oxo-1,6-dihydropyridin-3-yl)-6,7,8,9-tetrahydro-5H-imidazo[1,5-a][1,4]diazepine-1-carboxamide] | > 10
7 | CNC(=O)[C@@H](NC(=O)c1nc(-c2ccccc2N)n2c1CN(C)CCC2)C(C)(C)C [Compound 646, (S)-3-(2-aminophenyl)-N-(3,3-dimethyl-1-(methylamino)-1-oxobutan-2-yl)-8-methyl-6,7,8,9-tetrahydro-5H-imidazo[1,5-a][1,4]diazepine-1-carboxamide] | > 10
8 | CNC(=O)[C@@H](NC(=O)c1nc(-c2ccccc2C)n2c1CN(C)CCC2)C(C)(C)C [Compound 647, (S)-N-(3,3-dimethyl-1-(methylamino)-1-oxobutan-2-yl)-8-methyl-3-o-tolyl-6,7,8,9-tetrahydro-5H-imidazo[1,5-a][1,4]diazepine-1-carboxamide] | > 10
9 | CNC(=O)[C@@H](NC(=O)c1nc(-c2ccc(OC(C)C)cc2)n2c1CN(C)CCC2)C(C)(C)C [Compound 649, (S)-N-(3,3-dimethyl-1-(methylamino)-1-oxobutan-2-yl)-3-(4-isopropoxyphenyl)-8-methyl-6,7,8,9-tetrahydro-5H-imidazo[1,5-a][1,4]diazepine-1-carboxamide] | > 10
10 | CNC(=O)[C@@H](NC(=O)c1nc(-c2cc(F)c(F)cc2OC(C)C)n2c1CN(C)CCC2)C(C)(C)C [Compound 651, (S)-3-(4,5-difluoro-2-isopropoxyphenyl)-N-(3,3-dimethyl-1-(methylamino)-1-oxobutan-2-yl)-8-methyl-6,7,8,9-tetrahydro-5H-imidazo[1,5-a][1,4]diazepine-1-carboxamide] | > 10
11 | CNC(=O)[C@@H](NC(=O)c1nc(-c2cccc(F)c2OC)n2c1CN(C)CCC2)C(C)(C)C [Compound 657, (S)-N-(3,3-dimethyl-1-(methylamino)-1-oxobutan-2-yl)-3-(3-fluoro-2-methoxyphenyl)-8-methyl-6,7,8,9-tetrahydro-5H-imidazo[1,5-a][1,4]diazepine-1-carboxamide] | > 10
12 | CNC(=O)[C@@H](NC(=O)c1nc(-c2cccc3c2OC(F)(F)O3)n2c1CN(C)CCC2)C(C)(C)C [Compound 682, (S)-3-(2,2-difluorobenzo[d][1,3]dioxol-4-yl)-N-(3,3-dimethyl-1-(methylamino)-1-oxobutan-2-yl)-8-methyl-6,7,8,9-tetrahydro-5H-imidazo[1,5-a][1,4]diazepine-1-carboxamide] | > 10
13 | CNC(=O)[C@@H](NC(=O)c1nc(-c2ccc(C(C)=O)s2)n2c1CN(C)CCC2)C(C)(C)C [Compound 704, (S)-3-(5-acetylthiophen-2-yl)-N-(3,3-dimethyl-1-(methylamino)-1-oxobutan-2-yl)-8-methyl-6,7,8,9-tetrahydro-5H-imidazo[1,5-a][1,4]diazepine-1-carboxamide] | > 10
14 | CNC(=O)[C@@H](NC(=O)c1nc(-c2ccc(=O)n(C)c2)n2c1CN(C)CCC2)C(C)(C)C [Compound 708, (S)-N-(3,3-dimethyl-1-(methylamino)-1-oxobutan-2-yl)-8-methyl-3-(1-methyl-6-oxo-1,6-dihydropyridin-3-yl)-6,7,8,9-tetrahydro-5H-imidazo[1,5-a][1,4]diazepine-1-carboxamide] | > 10
15 | CNC(=O)[C@@H](NC(=O)c1nc(-c2cnn(-c3ccccc3)c2C)n2c1CN(C)CCC2)C(C)(C)C [Compound 709, (S)-N-(3,3-dimethyl-1-(methylamino)-1-oxobutan-2-yl)-8-methyl-3-(5-methyl-1-phenyl-1H-pyrazol-4-yl)-6,7,8,9-tetrahydro-5H-imidazo[1,5-a][1,4]diazepine-1-carboxamide] | > 10
16 | CNC(=O)[C@@H](NC(=O)c1nc(-c2cnn(CC(C)C)c2)n2c1CN(C)CCC2)C(C)(C)C [Compound 710, (S)-N-(3,3-dimethyl-1-(methylamino)-1-oxobutan-2-yl)-3-(1-isobutyl-1H-pyrazol-4-yl)-8-methyl-6,7,8,9-tetrahydro-5H-imidazo[1,5-a][1,4]diazepine-1-carboxamide] | > 10
17 | CNC(=O)[C@@H](NC(=O)c1nc(-c2cc(F)c(F)cc2F)n2c1CN(c1cncc(Cl)n1)CCC2)C(C)(C)C [Compound 718, (S)-8-(6-chloropyrazin-2-yl)-N-(3,3-dimethyl-1-(methylamino)-1-oxobutan-2-yl)-3-(2,4,5-trifluorophenyl)-6,7,8,9-tetrahydro-5H-imidazo[1,5-a][1,4]diazepine-1-carboxamide] | > 10
18 | CNC(=O)C1(NC(=O)c2nc(-c3cc(F)c(F)cc3F)n3c2CN(C)CCC3)CCCC1 [Compound 719, 8-methyl-N-(1-(methylcarbamoyl)cyclopentyl)-3-(2,4,5-trifluorophenyl)-6,7,8,9-tetrahydro-5H-imidazo[1,5-a][1,4]diazepine-1-carboxamide] | > 10
19 | CN1CCCn2c(-c3cc(Cl)ccc3F)nc(C(=O)NC(CN3CCCC3)C(C)(C)C)c2C1 (stereo not drawn) [Compound 720, 3-(5-chloro-2-fluorophenyl)-N-(3,3-dimethyl-1-(pyrrolidin-1-yl)butan-2-yl)-8-methyl-6,7,8,9-tetrahydro-5H-imidazo[1,5-a][1,4]diazepine-1-carboxamide] | > 10
20 | CNC(=O)[C@@H](NC(=O)c1nc(C2CCN(C(=O)c3ccccc3)CC2)n2c1CN(C)CCC2)C(C)(C)C [Compound 726, (S)-3-(1-benzoylpiperidin-4-yl)-N-(3,3-dimethyl-1-(methylamino)-1-oxobutan-2-yl)-8-methyl-6,7,8,9-tetrahydro-5H-imidazo[1,5-a][1,4]diazepine-1-carboxamide] | > 10
21 | CNC(=O)[C@@H](NC(=O)c1nc(C2CCN(S(=O)(=O)c3ccccc3)CC2)n2c1CN(C)CCC2)C(C)(C)C [Compound 727, (S)-N-(3,3-dimethyl-1-(methylamino)-1-oxobutan-2-yl)-8-methyl-3-(1-(phenylsulfonyl)piperidin-4-yl)-6,7,8,9-tetrahydro-5H-imidazo[1,5-a][1,4]diazepine-1-carboxamide] | > 10
22 | CNC(=O)[C@@H](NC(=O)c1nc(C2CCN(C(=O)C(C)C)CC2)n2c1CN(C)CCC2)C(C)(C)C [Compound 728, (S)-N-(3,3-dimethyl-1-(methylamino)-1-oxobutan-2-yl)-3-(1-isobutyrylpiperidin-4-yl)-8-methyl-6,7,8,9-tetrahydro-5H-imidazo[1,5-a][1,4]diazepine-1-carboxamide] | > 10
23 | CC(C)(C)[C@H](NC(=O)c1nc(-c2ccccc2)n2c1CNCC2)C(=O)NCCF [Compound 731, (S)-N-(1-(2-fluoroethylamino)-3,3-dimethyl-1-oxobutan-2-yl)-3-phenyl-5,6,7,8-tetrahydroimidazo[1,5-a]pyrazine-1-carboxamide] | > 10
24 | CC(C)(C)[C@H](NC(=O)c1nc(-c2ccccc2)n2c1CNCC2)C(=O)N1CCOCC1 [Compound 733, (S)-N-(3,3-dimethyl-1-morpholino-1-oxobutan-2-yl)-3-phenyl-5,6,7,8-tetrahydroimidazo[1,5-a]pyrazine-1-carboxamide] | > 10
25 | CN1CCCn2c(-c3cc(Cl)ccc3F)nc(C(=O)N[C@H](C(=O)N[C@H]3CN4CCC3CC4)C(C)(C)C)c2C1 [Compound 744, 3-(5-chloro-2-fluorophenyl)-N-((S)-3,3-dimethyl-1-oxo-1-((R)-quinuclidin-3-ylamino)butan-2-yl)-8-methyl-6,7,8,9-tetrahydro-5H-imidazo[1,5-a][1,4]diazepine-1-carboxamide] | > 10
26 | CNC(=O)[C@@H]1CCN(C(=O)c2nc(-c3cc(F)c(F)cc3F)n3c2CN(C)CCC3)C1 [Compound 758, (R)-N-methyl-1-(8-methyl-3-(2,4,5-trifluorophenyl)-6,7,8,9-tetrahydro-5H-imidazo[1,5-a][1,4]diazepine-1-carbonyl)pyrrolidine-3-carboxamide] | > 10
27 | CN1CCCn2c(-c3cc(F)c(F)cc3F)nc(C(=O)NCC3CCOCC3)c2C1 [Compound 764, 8-methyl-N-((tetrahydro-2H-pyran-4-yl)methyl)-3-(2,4,5-trifluorophenyl)-6,7,8,9-tetrahydro-5H-imidazo[1,5-a][1,4]diazepine-1-carboxamide] | > 10
